Experimental data published in patent publication EP0167245B1, “Anti-arrhythmic agents” (AMERICAN HOME PRODUCTS CORPORATION, priority 1984, dated 1986).

The molecules below were run on rabbit aortic smooth muscle (assay: Ca+2 antagonism: relaxation of KCl-depolarised rabbit thoracic aorta strips). Conditions: Oryctolagus cuniculus, 20 min; test compound 1 x 10^-5 M; 100 mM KCl contracted aortic strips; 20 min after addition; mean of two experiments; read-out: percent relaxation (P. R.).
Assay type: cell-based
Method: Here, transverse strips (10 mm x 2.5 mm) from the thoracic aorta were cut and suspended vertically in a jacketed (37 °C - 50 ml volume) organ bath in physiological saline solution (PSS) aerated with 95 % Oz/5 % CO9. The composition of PSS was as follows (mM) : NaCI 112, KCI 5, NaHC03 25, KH2PO4 1, MgS04 1.2, CaCI2 2.5, dextrose 10. The lower end of each tissue strip was attached to a fixed post and the upper end to a Statham UC-4 transducer. Changes in force development were recorded on a Beckman Dynograph Polygraphic Recorder.
Following equilibration, the muscles were contracted in a depolarizing solution of PSS in which 100 mM KCI was substituted for an equimolar concentration of NaCI. Following attainment of steady-state isometric force (20 min.), the test compound was added to afford a final concentration of 1 x 10-^5 M. The inhibitory effect, expressed as percent relaxation, was determined from the mean of two experiments twenty minutes after the addition of the compound being tested.
The following examples illustrate the preparation of a representative number of compounds of this invention. After each example, the Ca^2+ antagonist activity of the compound is presented in terms of percent relaxation (P. R.) at 10-^5 M concentration unless indicated otherwise. Similarly, the percentage mortality of standard experimental test animals upon coronary ligation (C. L.) is presented for comparison with the control mortality rate of 73 percent of animals receiving vehicle alone.

Compared with COc1cc(OC)cc(N(C(C)C)S(=O)(=O)CCCN(C)CCc2ccc(OC)c(OC)c2)c1 [Example 1, N-(3,5-Dimethoxyphenyl)-3-[(2-(3,4-dimethoxyphenyl)ethyl]-methylamino]-N-(1-methylethyl)-1-prop-anesulphonamide], COc1ccc(CCN(C)CCCS(=O)(=O)N(c2ccc(OC)c(OC)c2)C(C)C)cc1OC [Example 2, N-(3,4-Dimethoxyphenyl)-3-[[2-(3,4-dimethoxyphenyl)ethyl]methylaminol]-N-(1-methylethyl)-1-prop-anesulphonamide] is lower in inhibition at 10 µM: 90% for the first, 74% for the second.

Compared with COc1ccc(CCN(C)CCCS(=O)(=O)N(c2cc(OC)c(OC)c(OC)c2)C(C)C)cc1OC [Example 3, 3-[[2-(3,4-Dimethoxyphenyl)ethyl]methylamino]-N-(1-methylethyl)-N-(3,4,5-trimethoxyphenyl)-1-prop-anesulphonamide], COc1ccc(CCN(C)CCCN(C(C)C)S(=O)(=O)c2ccc(OC)c(OC)c2OC)cc1OC [Example 15, N-[3-[[2-(3,4-dimethoxyphenyl)ethyl]methylamino]propyl]-N-(1-methylethyl)-2.3,4-trimethoxybenzenesul-phonamide] is higher in inhibition at 10 µM: 62% for the first, 80% for the second.

Going from COc1ccc(CCN(C)CCCS(=O)(=O)N(c2cc(Cl)cc(Cl)c2)C(C)C)cc1OC [Example 4, N-(3,5-Dichlorophenyl)-3-[[2-(3,4-dimethoxyphenyl)ethyl]methylamino]-N-(1-methylethyl)-1-propanesulp-honamide] to COc1ccc(CCN(C)CCCS(=O)(=O)N(c2cccc(C(F)(F)F)c2)C(C)C)cc1OC [Example 6, N-(3-Trifluoromethylphenyl)-3-[[2-(3,4-dimethoxyphenyl)ethyl]methylamino]-N-(1-methylethyl)-1-prop-anesulphonamide], the inhibition at 10 µM falls from 86% to 78.5%.

Going from COc1ccc(CCN(C)CCCS(=O)(=O)Nc2cccc(C(F)(F)F)c2)cc1OC [Example 5, N-(3-Trifluoromethylphenyl)-3-[[2-(3,4-dimethoxyphenyl)-ethyl)methylamino]-1-propanesulphonamide] to COc1ccc(CCN(C)CCCN(C(C)C)S(=O)(=O)c2cccc(C(F)(F)F)c2)cc1OC [Example 7, N-[3-[[2-(3,4-Dimethoxyphenyl)ethyl]methylamino]propyl]-N-(1-methylethyl)-3-(trifluoromethyl) benzenesulphonamide], the inhibition at 10 µM rises from 51% to 86.6%.

COc1ccc(CCN(C)CCCCN(C(C)C)S(=O)(=O)c2ccc(Cl)c(Cl)c2)cc1OC [Example 14, 3,4-Dichloro-N-(4-[[2-(3,4-dimethoxyphenyl)ethyl]methylamino]butyl]-N-(1-methylethyl) benzenesulphonamide] gave an inhibition at 10 µM of 68%.

Same assay, conditions: test compound at 10-^s M as printed; 100 mM KCl contracted aortic strips; 20 min

In the case of COc1cc(OC)cc(N(C(C)C)S(=O)(=O)CCCN(C)CCc2ccc(OC)c(OC)c2)c1 [Example 1, N-(3,5-Dimethoxyphenyl)-3-[(2-(3,4-dimethoxyphenyl)ethyl]-methylamino]-N-(1-methylethyl)-1-prop-anesulphonamide], the “percent relaxation (P. R.)” value is reported as 27.
